≈ marks a conversion by molar mass, not a printed value.

A word on the solubility (kinetic): it is the concentration staying in solution when a stock, usually in DMSO, is diluted into the medium.

The conditions of the series: buffer; pH 7.4; 200.0 µM.
With `COc1ccc(C(=O)Nc2cc(C)c(NC(=O)c3ccccn3)cn2)cc1`, the kinetic solubility came to 0.0019 mg/mL (≈ 5.24 µM).

`O=C(NCC(=O)N1CCN(c2ccccc2O)CC1)c1cccs1` displayed a solubility (kinetic) greater than 0.0518 mg/mL.

Consider `COc1ccc(NS(=O)(=O)c2ccc(N3CCCCC3)c(NC(=O)C(C)NC(N)=O)c2)cc1` (configuration not stated), for which the kinetic solubility was greater than 0.0713 mg/mL.

Regarding `O=C(OCc1cc(Cl)cc2c1OCOC2)c1cccnc1Cl`, the kinetic solubility came to 0.0085 mg/mL (≈ 25 µM).

Consider `CSc1cccc(CN2CCC(CCC(=O)NC3CC3)CC2)c1`, for which the kinetic solubility was greater than 0.0499 mg/mL.

Take `Cc1onc(-c2ccccc2)c1C(=O)Nc1cccc(S(=O)(=O)N2CCCCC2)c1`: the kinetic solubility was 0.0025 mg/mL (≈ 5.88 µM).

`Cc1c(C=O)c2ccccc2n1CC(=O)O` gave a solubility (kinetic) greater than 0.0326 mg/mL.

Compound `COc1ccc(OC)c(CN2CCSCC2)c1` yielded a solubility (kinetic) of 0.0255 mg/mL (≈ 101 µM).

`Cc1[nH]c(=O)[nH]c(=O)c1S(=O)(=O)N1CCCCC1`: the solubility (kinetic) was greater than 0.041 mg/mL.

For `COc1ccc(C(=O)Cn2cnc3ccccc3c2=O)c(OC)c1`, the kinetic solubility was found to be 0.0417 mg/mL (≈ 129 µM).

Take `Nc1ccccc1-n1c(=O)n(Cc2ccccc2F)c(=O)c2[nH]cnc21`: the solubility (kinetic) turned out to be 0.035 mg/mL (≈ 99.6 µM).

`CC(=O)NC(C)C(=O)OCC(=O)c1ccc(-c2ccccc2)cc1` (configuration not stated): the solubility (kinetic) turned out to be 0.0219 mg/mL (≈ 67.3 µM).

As to `CN(c1ccccc1)c1cc(Br)nc(Br)c1`, the kinetic solubility is 0.0004 mg/mL (≈ 1.17 µM). This solubility kinetic lies about 55-fold lower than the previous one.

Regarding `COc1ccc(/C=C(\C#N)C(=O)N2COCC2(C)C)cc1`, the solubility (kinetic) was greater than 0.0429 mg/mL.

`CC1CN(c2ccc(S(=O)(=O)N3CCCC3)cn2)CC(C)O1` (configuration not stated) gave a kinetic solubility greater than 0.0488 mg/mL.

As for `CCOc1ccc(C(=O)n2cc(C(=O)OC)c3ccccc32)cc1`, the solubility (kinetic) is less than 0.0007 mg/mL.

In the case of `O=C(COc1ccccc1)NCC(=O)NC1CCCCC1`, the solubility (kinetic) is greater than 0.0436 mg/mL.

On to `C/C=C/C=C/C(=O)OCC(=O)Nc1ccc(Cl)cc1`, for which the kinetic solubility turned out to be 0.0062 mg/mL (≈ 22.2 µM).

Consider `O=C(Nc1cccc(S(=O)(=O)N2CCCCC2)c1)C1COc2ccccc2O1` (configuration not stated), for which the solubility (kinetic) was found to be 0.0066 mg/mL (≈ 16.4 µM).

Take `CSc1nc(-c2ccccc2)cc(C)c1C#N`: the solubility (kinetic) was less than 0.0003 mg/mL.

`O=C(NC1CCSC1=O)C1CC(=O)N(c2ccc(F)cc2)C1` (configuration not stated) showed a kinetic solubility of 0.0462 mg/mL (≈ 143 µM).

`COc1cc(C2C(C#N)=C(SC)NC3=C2C(=O)CCC3)ccc1O` (configuration not stated) showed a solubility (kinetic) greater than 0.0514 mg/mL.

Consider `CN(C1CCS(=O)(=O)C1)S(=O)(=O)c1ccccc1` (configuration not stated), for which the solubility (kinetic) was greater than 0.0434 mg/mL.

Turning to `O=S(=O)(Nc1nc2ccc(Cl)cc2s1)c1cccs1`, the solubility (kinetic) turned out to be 0.0122 mg/mL (≈ 36.9 µM).

`COc1cc(CC(=O)N(CC(C)C)C2CCS(=O)(=O)C2)cc(OC)c1OC` (configuration not stated) showed a kinetic solubility greater than 0.0599 mg/mL.

With `CC(=O)N1CCc2cc(S(=O)(=O)NC3CCCCC3)ccc21`, the solubility (kinetic) was 0.0064 mg/mL (≈ 19.8 µM).

`O=C(CN1CCN(c2ccccc2)CC1)c1c[nH]c2ccccc12` showed a solubility (kinetic) of 0.0044 mg/mL (≈ 13.8 µM).

As to `Cc1ccc(NC(=O)COC(=O)Cn2ccc(=O)[nH]c2=O)cc1C`, the kinetic solubility was greater than 0.0497 mg/mL.

`O=c1oc2ccccc2n1Cc1cccc(C(F)(F)F)c1`: the kinetic solubility stood at 0.0022 mg/mL (≈ 7.5 µM).

On to `CCC(C)NC(=O)CN1C(=O)NC2(CCc3ccccc3C2)C1=O` (configuration not stated), for which the kinetic solubility is greater than 0.0494 mg/mL.

`Cc1ccc(NC(=O)N2CCCC2c2cccs2)cc1` (configuration not stated) gave a kinetic solubility greater than 0.043 mg/mL.

The compound `CN1C(=O)C2C3c4ccccc4C(c4ccccc43)[C@@H]2C1=O` (some centres not stated) gave a solubility (kinetic) of 0.002 mg/mL (≈ 6.91 µM).

`O=S(=O)(NC1CC1)c1ccccc1` registered a solubility (kinetic) of 0.0283 mg/mL (≈ 143 µM). Against the preceding compound, the solubility kinetic is about 14-fold higher.

Take `COc1ccc(C(=O)NCC(=O)OCC(=O)NCc2cccs2)cc1`: the solubility (kinetic) is greater than 0.0544 mg/mL.

In turn, `O=C(COc1ccccc1Cl)N1CCCCCCC1` gave a solubility (kinetic) of 0.0314 mg/mL (≈ 111 µM).

Regarding `COc1cc(C(=O)NCc2ccc3c(c2)OCO3)c([N+](=O)[O-])cc1OC`, the kinetic solubility was found to be 0.0383 mg/mL (≈ 106 µM).

As for `COc1ccc(/C=C(\C#N)C(=O)NC(C)c2ccccc2)cc1O` (configuration not stated), the kinetic solubility amounted to 0.0183 mg/mL (≈ 56.8 µM).

Turning to `COc1ccc2nc(Nc3nc(-c4ccncc4)cs3)sc2c1`, the kinetic solubility stood at 0.0008 mg/mL (≈ 2.35 µM).

`CN(C)c1ncnc2sc(-c3ccccc3)cc12`: the kinetic solubility was determined as 0.003 mg/mL (≈ 11.7 µM).

`CC1CN(CCC(=O)Nc2ccccc2F)CC(C)O1` (configuration not stated) gave a kinetic solubility greater than 0.0421 mg/mL.

As to `COc1ccc(-c2noc(CCC(=O)NC3CCCC3)n2)cc1`, the solubility (kinetic) came out at 0.0272 mg/mL (≈ 86.2 µM).

In turn, `O=c1c2ccccc2n(CC(O)CN2CCCCC2)c2ccccc12` (configuration not stated) returned a solubility (kinetic) greater than 0.0505 mg/mL.

In turn, `Cc1ccccc1NC(=O)C1CC(=O)OC12CCOC(C)(C)C2` (configuration not stated) yielded a solubility (kinetic) greater than 0.0476 mg/mL.

`Fc1ccccc1CNc1nc(-c2cccnc2)nc2ccccc12`: the kinetic solubility stood at 0.009 mg/mL (≈ 27.2 µM).

Consider `CCCC(=O)Nc1cccc(Oc2ccc3c(c2)C(=O)NC3=O)c1`, for which the kinetic solubility worked out at 0.0116 mg/mL (≈ 35.8 µM).

With `O=C1OC(Nc2ccc3ncccc3c2)c2ccccc21` (configuration not stated), the solubility (kinetic) turned out to be 0.0043 mg/mL (≈ 15.6 µM).

On to `OC1(Cc2ccccc2)CCNCC1`, for which the solubility (kinetic) is greater than 0.0287 mg/mL.

For the compound `Cc1ccc(S(=O)(=O)N2CCc3ccccc3C2)cc1C`, the kinetic solubility was less than 0.0006 mg/mL.

As for `NC(CS(=O)O)C(=O)O` (configuration not stated), the kinetic solubility was greater than 0.023 mg/mL.

`NC(=O)c1ccccc1NC(=O)COc1ccc2c(c1)OCO2` gave a solubility (kinetic) of 0.0031 mg/mL (≈ 9.86 µM).

In turn, `COc1ccc(C(=O)CNc2ccc(C)cc2C)cc1` registered a solubility (kinetic) of 0.0058 mg/mL (≈ 21.5 µM).

`O=C(c1c[nH]c2ccccc12)N1CCN(Cc2ccccc2)CC1` showed a kinetic solubility greater than 0.0479 mg/mL.

Values taken from PubChem BioAssay AID1996.
